Measurements taken from the NIST ThermoML archive (doi:10.1021/je700443d).
Values joined by “and” are separate entries in the source; they are usually repeats but may differ in a detail not shown here. Equal values may be shown once.

Conditions: Liquid; for vapor or sublimation pressure: Closed cell (Static) method; for mass density: determined from pressure vs temperature measurement to find liquid-full point for a closed cell

CO[Si](OC)(OC)OC [silicon tetramethoxide]
Conditions | mass density | vapor or sublimation pressure
334.15 K | 990 kg/m3 | 30 kPa
335.15 K | – | 30 kPa
336.15 K | – | 30 kPa
337.15 K | – | 30 kPa
338.15 K | – | 30 kPa
339.15 K | – | 30 kPa
341.15 K | – | 30 kPa
342.15 K | – | 30 kPa
343.15 K | – | 30 kPa
344.15 K | – | 30 kPa
345.15 K | – | 40 kPa
347.15 K | – | 40 kPa
348.15 K | 940 kg/m3 | 40 kPa
349.15 K | – | 40 kPa
351.15 K | – | 40 kPa
352.15 K | – | 40 kPa
353.15 K | – | 40 kPa
355.15 K | – | 40 kPa
356.15 K | – | 40 kPa
357.15 K | – | 50 kPa
358.15 K | – | 50 kPa
359.15 K | – | 50 kPa
361.15 K | – | 50 kPa
362.15 K | – | 50 kPa
363.15 K | – | 50 kPa
364.15 K | – | 50 kPa
365.15 K | 920 kg/m3 | 50 kPa
366.15 K | – | 60 kPa
368.15 K | – | 60 kPa
369.15 K | – | 60 kPa
370.15 K | – | 60 kPa
371.15 K | – | 60 kPa
372.15 K | – | 60 kPa
373.1 K | – | 70 kPa
374.15 K | – | 70 kPa
375.15 K | – | 70 kPa
377.15 K | – | 70 kPa
378.15 K | – | 80 kPa
379.15 K | – | 80 kPa
380.15 K | – | 80 kPa
381.15 K | – | 80 kPa
382.15 K | – | 90 kPa
383.15 K | 900 kg/m3 | –
384.15 K | – | 90 kPa
385.15 K | – | 90 kPa
386.15 K | – | 90 kPa
387.15 K | – | 100 kPa
388.15 K | – | 100 kPa
389.15 K | 880 kg/m3 | –
390.15 K | – | 100 kPa
391.15 K | – | 110 kPa
392.15 K | – | 110 kPa
393.15 K | – | 110 kPa
394.15 K | – | 120 kPa
395.15 K | – | 120 kPa
397.15 K | – | 130 kPa
398.15 K | – | 130 kPa
399.15 K | – | 130 kPa
400.15 K | – | 140 kPa
401.15 K | – | 140 kPa
403.15 K | – | 150 kPa
404.15 K | – | 150 kPa
405.15 K | – | 160 kPa
406.15 K | 850 kg/m3 | 160 kPa
407.15 K | – | 170 kPa
408.15 K | – | 170 kPa
409.15 K | – | 180 kPa
411.15 K | – | 180 kPa
412.15 K | – | 190 kPa
413.15 K | – | 190 kPa
414.15 K | – | 200 kPa
415.15 K | 840 kg/m3 | 200 kPa
417.15 K | – | 210 kPa
418.15 K | – | 220 kPa
419.15 K | – | 220 kPa
420.15 K | – | 230 kPa
421.15 K | – | 230 kPa
422.15 K | – | 240 kPa
424.15 K | – | 250 kPa
425.15 K | – | 260 kPa
426.15 K | – | 260 kPa
427.15 K | – | 270 kPa
428.15 K | – | 280 kPa
429.15 K | – | 280 kPa
430.15 K | – | 290 kPa
432.15 K | – | 300 kPa
433.15 K | – | 310 kPa
434.15 K | 800 kg/m3 | 320 kPa
435.15 K | – | 320 kPa
436.15 K | – | 330 kPa
437.15 K | – | 340 kPa
439.15 K | – | 350 kPa
440.15 K | 800 kg/m3 | 360 kPa
441.15 K | – | 360 kPa
442.15 K | – | 370 kPa
443.15 K | – | 380 kPa
444.15 K | – | 390 kPa
445.15 K | – | 400 kPa
447.15 K | – | 410 kPa
448.15 K | – | 410 kPa
449.15 K | – | 420 kPa
450.15 K | – | 430 kPa
451.15 K | – | 440 kPa
452.15 K | – | 450 kPa
453.15 K | – | 460 kPa
454.15 K | – | 470 kPa
456.15 K | – | 480 kPa
457.15 K | – | 490 kPa
458.15 K | – | 500 kPa
459.15 K | – | 510 kPa
460.15 K | – | 520 kPa
461.15 K | – | 530 kPa
462.15 K | – | 550 kPa
463.15 K | 750 kg/m3 and 770 kg/m3 | 560 kPa
465.15 K | – | 570 kPa
466.15 K | – | 580 kPa
467.15 K | – | 590 kPa
468.15 K | – | 610 kPa
469.15 K | – | 620 kPa
470.15 K | – | 630 kPa
471.15 K | – | 650 kPa
472.15 K | – | 660 kPa
474.15 K | – | 670 kPa
475.15 K | – | 690 kPa
476.15 K | – | 700 kPa
477.15 K | – | 720 kPa
478.15 K | – | 730 kPa
479.15 K | – | 750 kPa
480.15 K | 710 kg/m3 | 760 kPa
481.15 K | – | 780 kPa
482.15 K | – | 790 kPa
483.15 K | 730 kg/m3 | 810 kPa
485.15 K | – | 820 kPa
486.15 K | – | 840 kPa
487.15 K | – | 860 kPa
488.15 K | – | 870 kPa
489.15 K | – | 890 kPa
490.15 K | – | 910 kPa
491.15 K | – | 920 kPa
492.15 K | – | 940 kPa
493.15 K | – | 960 kPa
494.15 K | – | 980 kPa
495.15 K | – | 1000 kPa
497.15 K | – | 1010 kPa
498.15 K | – | 1030 kPa
499.15 K | – | 1050 kPa
500.15 K | – | 1070 kPa
501.15 K | – | 1090 kPa
502.15 K | 690 kg/m3 | 1110 kPa
503.15 K | – | 1130 kPa
504.15 K | – | 1150 kPa
505.15 K | – | 1160 kPa
506.15 K | – | 1180 kPa
507.15 K | – | 1200 kPa
508.15 K | – | 1220 kPa
509.15 K | – | 1250 kPa
510.15 K | – | 1270 kPa
512.15 K | – | 1280 kPa
513.15 K | – | 1300 kPa
514.15 K | – | 1320 kPa and 1340 kPa
516.15 K | – | 1360 kPa
517.15 K | – | 1380 kPa
518.15 K | – | 1400 kPa
519.15 K | 650 kg/m3 | 1420 kPa
520.15 K | – | 1440 kPa
521.15 K | – | 1460 kPa
522.15 K | – | 1480 kPa
532.15 K | 610 kg/m3 | –
